Measured values reported in the NIST ThermoML archive (doi:10.1021/je1006357).

Assays:
[1] = refractive index (Na D-line) (dimensionless); details: 101.33 kPa, Liquid, Standard Abbe refractometry
[2] = for viscosity / speed of sound / mass density: 101.33 kPa, Liquid; for viscosity: Capillary tube (Ostwald / Ubbelohde) method; for speed of sound: Pulse-echo method; for mass density: Vibrating tube method; for Normal melting temperature: Crystal, DTA

CCCC[N+]1(C)CCCC1.COS(=O)(=O)[O-] [1-butyl-1-methylpyrrolidinium methyl sulfate]
Details	mass density, [2] [kg/m3]	refractive index, [1]	speed of sound, [2] [m/s]	viscosity, [2] [mPa·s]
298.15 K	1166.69	1.47308	1741.6	467.5
303.15 K	1163.58	1.47184	1727.3	334.9
308.15 K	1160.46	1.47054	1713.6	245.6
313.15 K	1157.4	1.46924	1700.3	184.1
318.15 K	1154.4	1.46792	1687.4	139.2
323.15 K	1151.42	1.46661	1674.7	107.8
328.15 K	1148.42	1.46536	1662.2	86.1
333.15 K	1145.42	1.46406	1649.8	69.2
338.15 K	1142.44	1.46274	1637.6	56.4
343.15 K	1139.47	1.46143	1625.5	46.6

CCCC[N+]1(CC)CCCC1.CCOS(=O)(=O)[O-] [1-butyl-1-ethylpyrrolidinium ethyl sulfate]
Details	mass density, [2] [kg/m3]	refractive index, [1]	speed of sound, [2] [m/s]	viscosity, [2] [mPa·s]
328.15 K	1118.72	1.4671	1602	105.5
333.15 K	1115.98	1.46581	1589.6	82.9
338.15 K	1113.02	1.46454	1577.2	66.8
343.15 K	1110.08	1.46315	1564.9	55.8

Details	Normal melting temperature [°C]
[2]	53

CC[N+](C)(CC)CC.COS(=O)(=O)[O-] [N,N-diethyl-N-methylethanaminium methyl sulfate]
Details	mass density, [2] [kg/m3]	refractive index, [1]	speed of sound, [2] [m/s]	viscosity, [2] [mPa·s]
308.15 K	1166.44	1.46191	1853.5	218.5
313.15 K	1163.4	1.46065	1839.7	165.6
318.15 K	1160.36	1.45939	1826.3	127.7
323.15 K	1157.34	1.45812	1813.1	100.3
328.15 K	1154.32	1.45687	1800	79.7
333.15 K	1151.33	1.45561	1787.1	64
338.15 K	1148.34	1.45402	1774.2	53.42
343.15 K	1145.36	1.45283	1761.5	44.92

Details	Normal melting temperature [°C]
[2]	33

CCOS(=O)(=O)[O-].CC[N+]1(C)CCCC1 [1-ethyl-1-methylpyrrolidinium ethyl sulfate]
Details	mass density, [2] [kg/m3]	refractive index, [1]	speed of sound, [2] [m/s]	viscosity, [2] [mPa·s]
308.15 K	1189.67	1.47021	1750.2	172
313.15 K	1186.53	1.46891	1737.5	134.9
318.15 K	1183.41	1.4676	1725.2	107.5
323.15 K	1180.3	1.46632	1713	86.8
328.15 K	1177.22	1.46506	1701	71.2
333.15 K	1174.15	1.46378	1689.2	59.1
338.15 K	1171.11	1.46246	1677.3	49.5
343.15 K	1168.07	1.46116	1665.7	42

Details	Normal melting temperature [°C]
[2]	33
